Source: the NIST ThermoML archive (doi:10.1016/j.jct.2011.07.002)
± gives the expanded uncertainty stated by the source.

How the values were obtained:
[1] = molar heat capacity at constant pressure; mn = molality of the nth substance listed, in mol/kg; details: 298.15 K, 101 kPa, Liquid, Flow calorimetry
[2] = mn = molality of the nth substance listed, in mol/kg; details: 101 kPa, Liquid; for mass density: Vibrating tube method

Cc1cn([C@H]2CC(O)[C@@H](CO)O2)c(=O)[nH]c1=O (stereo not given in full) [thymidine] + O
[1]
Details	molar heat capacity at constant pressure [J/K/mol]
m1 = 0.02897	450.9 ± 8.4
m1 = 0.04107	449.7 ± 6.4
m1 = 0.05418	447.6 ± 7.4
m1 = 0.06918	452.8 ± 5.8
m1 = 0.08071	452 ± 5.4
m1 = 0.0935	452.9 ± 4.8
m1 = 0.1078	453.3 ± 4.4
m1 = 0.122	453.8 ± 4.8
m1 = 0.1336	455.5 ± 3.5

[2]
Details	mass density [kg/m3]	speed of sound [m/s]
288.15 K, m1 = 0.02897	1001.3 ± 0.036	–
288.15 K, m1 = 0.04107	1002.22 ± 0.036	–
288.15 K, m1 = 0.05418	1003.2 ± 0.036	–
288.15 K, m1 = 0.06905	1004.3 ± 0.037	–
288.15 K, m1 = 0.08071	1005.18 ± 0.038	–
288.15 K, m1 = 0.0935	1006.13 ± 0.038	–
288.15 K, m1 = 0.1077	1007.17 ± 0.039	–
288.15 K, m1 = 0.122	1008.22 ± 0.039	–
288.15 K, m1 = 0.1336	1009.07 ± 0.04	–
298.15 K, m1 = 0.02049	998.571 ± 0.036	1498.1 ± 1
298.15 K, m1 = 0.03005	999.279 ± 0.036	1498.8 ± 1
298.15 K, m1 = 0.03798	999.866 ± 0.035	1499.4 ± 1
298.15 K, m1 = 0.04153	1000.13 ± 0.036	1499.6 ± 1
298.15 K, m1 = 0.04752	1000.57 ± 0.036	1500 ± 1
298.15 K, m1 = 0.05597	1001.19 ± 0.036	1500.6 ± 1
298.15 K, m1 = 0.06455	1001.82 ± 0.036	1501.2 ± 1
298.15 K, m1 = 0.0743	1002.53 ± 0.037	1501.9 ± 1
298.15 K, m1 = 0.08286	1003.15 ± 0.037	1502.4 ± 1
298.15 K, m1 = 0.09266	1003.86 ± 0.037	1503.1 ± 1
303.15 K, m1 = 0.02802	997.714 ± 0.037	–
303.15 K, m1 = 0.03767	998.422 ± 0.037	–
303.15 K, m1 = 0.04737	999.127 ± 0.037	–
303.15 K, m1 = 0.05795	999.898 ± 0.037	–
303.15 K, m1 = 0.06905	1000.7 ± 0.037	–
303.15 K, m1 = 0.08175	1001.62 ± 0.038	–
303.15 K, m1 = 0.09431	1002.52 ± 0.038	–
303.15 K, m1 = 0.1077	1003.49 ± 0.039	–
303.15 K, m1 = 0.1198	1004.35 ± 0.038	–
313.15 K, m1 = 0.03767	994.944 ± 0.039	–
313.15 K, m1 = 0.04737	995.64 ± 0.038	–
313.15 K, m1 = 0.05795	996.397 ± 0.038	–
313.15 K, m1 = 0.0689	997.176 ± 0.038	–
313.15 K, m1 = 0.08175	998.094 ± 0.038	–
313.15 K, m1 = 0.09431	998.979 ± 0.038	–
313.15 K, m1 = 0.1079	999.926 ± 0.037	–
313.15 K, m1 = 0.1198	1000.77 ± 0.038	–
